According to patent publication US5861405A, “S-substituted 1,3,7-trialkyl-xanthine derivatives” (priority 1994, dated 1999):
Converted amounts (≈) assume the structure as drawn. “And” between values parts separate entries of the source, which are not always exact repeats. Identical values can stand only once. Like-named read-outs stand apart in the source and are kept apart here. Blank lines part the entries; values can stand above or below the compound they belong to.

How the values were obtained:
[1] = tested on: locomotor activity in mice; test: Locomotor activity in mice, open field (Digiscan activity monitor); format: in vivo, mouse; conditions: for locomotor stimulation, in words: mice
locomotor activity = conditions: cited from earlier work
[2] = tested on: rat brain A2a- vs. A1-receptors; conditions: cited from earlier work
[3] = target: T1, rat A1 cortical receptors (Rattus norvegicus, UniProt P25099); test: Radioligand binding, [3H]N6-phenylisopropyladenosine ([3H]PIA), rat cortical A1 receptors
T1 construct: Rat cerebral cortical membranes and striatal membranes were prepared; from tissue; host or cells: rat cerebral cortex membranes
T1 sequence (P25099 1-326): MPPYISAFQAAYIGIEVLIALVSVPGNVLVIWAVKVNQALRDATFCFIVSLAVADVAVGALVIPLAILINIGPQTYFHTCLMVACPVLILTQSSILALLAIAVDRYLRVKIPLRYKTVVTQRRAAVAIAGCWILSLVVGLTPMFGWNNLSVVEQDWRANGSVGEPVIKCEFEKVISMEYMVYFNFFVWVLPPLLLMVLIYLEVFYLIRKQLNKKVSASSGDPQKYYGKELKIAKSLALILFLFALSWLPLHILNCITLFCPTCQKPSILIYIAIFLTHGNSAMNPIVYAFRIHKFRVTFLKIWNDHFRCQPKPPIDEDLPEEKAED

[4] = tested on: locomotor activity in mice; conditions: postinjection (Baumgold et al.); cited from earlier work
[5] = target: T2, rat striatal A2a receptors (Rattus norvegicus, UniProt P30543); test: Radioligand binding, [3H]CGS 21680, rat striatal A2a receptors; set-up: Rat cerebral cortical membranes and striatal membranes were prepared; from tissue; host or cells: rat striatal membranes; conditions: for A1/A2a ratio: ratio of Ki values
Aqueous solubility = conditions: for solubility kinetic: water, 0.5% dmso, organic solvent or mixture
[6] = target: T3, A1 receptors, bovine striatum (Bos taurus, UniProt P28190); test: Competition binding vs [3H]PIA, bovine striatal membranes
T3 construct: Striatal tissue was isolated by dissection of rabbit, bovine, and rat brain; tissue Pel-Freeze Biologicals Co; host or cells: bovine striatal membranes (frozen brain)

[7] = target: A2a receptors, rabbit striatum (Oryctolagus cuniculus, UniProt G1SVQ2); test: biochemical
[8] = target: T4, A1 receptors, rat striatum (Rattus norvegicus, UniProt P25099); test: Competition binding vs [3H]PIA, rat striatal membranes
T4 construct: Striatal tissue was isolated by dissection of rabbit, bovine, and rat brain; tissue Pel-Freeze Biologicals Co; host or cells: rat striatal membranes (frozen brain)
T4 sequence (P25099 1-326): T1 sequence (P25099 1-326)

[9] = target: T2, rat striatal A2a receptors; test: biochemical
[10] = target: T5, A1 receptors, rabbit striatum (Oryctolagus cuniculus, UniProt P34970); test: Competition binding vs [3H]PIA, rabbit striatal membranes
T5 construct: Striatal tissue was isolated by dissection of rabbit, bovine, and rat brain; tissue Pel-Freeze Biologicals Co; host or cells: rabbit striatal membranes (frozen brain)

[11] = target: T6, A2a receptors, rat striatum (Rattus norvegicus, UniProt P30543); test: biochemical
rabbit A2a receptors = rabbit A2a receptors (Oryctolagus cuniculus, UniProt G1SVQ2); test: biochemical
[12] = target: T7, A1 receptors, guinea pig striatum (Cavia porcellus, UniProt P47745); test: Competition binding vs [3H]PIA, guinea pig striatal membranes
T7 construct: guinea pig, bovine, and rabbit striatal membranes; tissue Keystone Biologicals; host or cells: guinea pig striatal membranes (frozen brain)

[13] = target: A2a receptors, bovine striatum (Bos taurus, UniProt E1BKU0); test: biochemical
[14] = target: T2, rat striatal A2a receptors
[15] = tested on: A1 receptors, rat striatal membranes; test: Irreversible inhibition after preincubation and washing, [3H]PIA, rat striatal membranes; format: binding; conditions: preincubation with 20 μM ISC, 60 min
Description: Striatal membranes were treated with inhibitor as follows.

[16] = target: T6, A2a receptors, rat striatum; conditions: four species (rat, guinea pig, bovine, rabbit)
bovine A2a receptors = bovine A2a receptors (Bos taurus, UniProt E1BKU0); test: biochemical
[17] = target: A1 receptors, guinea pig brain; conditions: vs [3H]CHA in guinea pig brain; read-out: Ki (A1), Shimada et al.; cited from earlier work
[18] = target: A2 receptors, rat striatum; conditions: vs [3H]NECA in rat striatum; read-out: Ki (A2a), Shimada et al.; cited from earlier work
[19] = target: T6, A2a receptors, rat striatum; test: Radioligand binding vs [3H]N-ethylcarboxamidoadenosine, rat striatum; set-up: Striatal tissue was isolated by dissection of rabbit, bovine, and rat brain; tissue Pel-Freeze Biologicals Co; host or cells: rat striatal membranes (frozen brain); conditions: Table VI; vs [3H]NECA; read-out: Inhibition of binding (Ki), rat striatum A2a
[20] = target: A1 receptor, rat adipocytes (Rattus norvegicus, UniProt P25099); test: biochemical
[21] = target: T8, A2a receptor, human platelets (Homo sapiens, UniProt P29274); test: Antagonism of NECA-elicited stimulation of adenylate cyclase, human platelets; format: biochemical
T8 construct: PC12) cell membranes or in human platelets; from tissue; host or cells: human platelets

[22] = target: T9, A2a receptor, rat pheochromocytoma (PC12) cells (Rattus norvegicus, UniProt P30543); test: biochemical; conditions: Table VI; read-out: Adenylate cyclase (KB), rat PC12 cells A2a
T9 construct: via an A2a receptor in rat pheochromocytoma (PC12) cell membranes; endogenous in cells; host or cells: PC12 cells (rat pheochromocytoma)

[23] = Table VI, vs [3H]PIA, read-out: Inhibition of binding (Ki), rat cortex A1
[24] = Table I, vs [3H]PIA (1 nM), rat A1 receptors, read-out: Ki (A1)
[25] = Ki value / affinity at A2 receptors
[26] = Table I, vs [3H]CGS21680 (5 nM), rat striatal A2 receptors, read-out: Ki (A2a)

T2 sequence (P30543 whole entry): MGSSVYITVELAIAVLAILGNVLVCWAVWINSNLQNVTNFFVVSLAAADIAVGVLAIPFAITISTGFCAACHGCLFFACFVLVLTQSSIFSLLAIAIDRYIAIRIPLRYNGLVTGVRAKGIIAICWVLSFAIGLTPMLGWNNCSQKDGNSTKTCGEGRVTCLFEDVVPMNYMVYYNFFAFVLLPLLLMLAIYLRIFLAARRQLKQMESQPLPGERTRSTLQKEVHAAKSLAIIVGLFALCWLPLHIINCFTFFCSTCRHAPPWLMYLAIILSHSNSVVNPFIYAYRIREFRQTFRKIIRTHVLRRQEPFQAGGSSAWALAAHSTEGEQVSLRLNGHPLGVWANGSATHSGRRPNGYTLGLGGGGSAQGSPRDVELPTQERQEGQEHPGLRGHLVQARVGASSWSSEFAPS
T6 sequence (P30543 whole entry): as above
A2a receptors, rabbit striatum, sequence (G1SVQ2 1-409): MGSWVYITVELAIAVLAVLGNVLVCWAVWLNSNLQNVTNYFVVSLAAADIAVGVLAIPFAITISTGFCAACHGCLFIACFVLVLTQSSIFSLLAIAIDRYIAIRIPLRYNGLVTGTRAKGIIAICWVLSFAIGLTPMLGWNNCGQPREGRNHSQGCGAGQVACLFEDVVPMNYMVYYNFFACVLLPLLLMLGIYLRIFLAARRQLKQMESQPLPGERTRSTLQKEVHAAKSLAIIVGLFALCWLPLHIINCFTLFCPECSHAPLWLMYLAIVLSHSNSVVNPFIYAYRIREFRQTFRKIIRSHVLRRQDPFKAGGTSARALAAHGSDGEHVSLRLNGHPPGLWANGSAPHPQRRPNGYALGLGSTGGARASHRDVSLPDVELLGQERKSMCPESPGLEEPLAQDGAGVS
T9 sequence (P30543 whole entry): as the sequence (P30543 whole entry) above
rabbit A2a receptors, sequence (G1SVQ2 1-409): as the sequence (G1SVQ2 1-409) above
T7 sequence (P47745 whole entry): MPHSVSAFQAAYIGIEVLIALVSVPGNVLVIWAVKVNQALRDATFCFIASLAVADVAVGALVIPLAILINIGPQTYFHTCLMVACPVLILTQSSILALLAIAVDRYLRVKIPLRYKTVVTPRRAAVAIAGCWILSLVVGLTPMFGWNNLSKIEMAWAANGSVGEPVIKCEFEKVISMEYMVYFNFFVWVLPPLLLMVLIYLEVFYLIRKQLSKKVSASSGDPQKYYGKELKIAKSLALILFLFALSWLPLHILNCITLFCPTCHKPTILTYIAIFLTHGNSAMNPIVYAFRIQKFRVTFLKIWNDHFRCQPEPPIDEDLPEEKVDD
T8 sequence (P29274 whole entry): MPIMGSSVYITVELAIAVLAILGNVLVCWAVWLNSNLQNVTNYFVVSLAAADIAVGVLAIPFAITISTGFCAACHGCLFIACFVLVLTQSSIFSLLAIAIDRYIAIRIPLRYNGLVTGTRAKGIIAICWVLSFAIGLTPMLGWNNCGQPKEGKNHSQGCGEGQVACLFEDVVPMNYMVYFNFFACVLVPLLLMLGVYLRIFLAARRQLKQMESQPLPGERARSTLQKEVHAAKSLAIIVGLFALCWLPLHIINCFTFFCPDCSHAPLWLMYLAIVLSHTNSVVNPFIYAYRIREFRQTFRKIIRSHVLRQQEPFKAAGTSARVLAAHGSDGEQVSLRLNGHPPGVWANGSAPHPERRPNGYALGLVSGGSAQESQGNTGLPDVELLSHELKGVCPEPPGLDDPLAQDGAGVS
bovine A2a receptors, sequence (E1BKU0 1-401): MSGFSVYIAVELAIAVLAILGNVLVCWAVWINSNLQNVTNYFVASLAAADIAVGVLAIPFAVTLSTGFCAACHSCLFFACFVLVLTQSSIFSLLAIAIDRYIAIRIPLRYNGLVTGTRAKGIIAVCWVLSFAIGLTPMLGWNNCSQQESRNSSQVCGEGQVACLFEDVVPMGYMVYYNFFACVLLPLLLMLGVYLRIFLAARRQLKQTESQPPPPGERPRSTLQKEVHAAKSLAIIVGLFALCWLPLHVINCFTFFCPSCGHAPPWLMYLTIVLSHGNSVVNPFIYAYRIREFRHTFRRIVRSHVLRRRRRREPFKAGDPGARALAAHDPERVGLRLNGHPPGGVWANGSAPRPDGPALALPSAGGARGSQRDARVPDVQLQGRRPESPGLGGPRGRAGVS
A2a receptors, bovine striatum, sequence (E1BKU0 1-401): as above
T5 sequence (P34970 whole entry): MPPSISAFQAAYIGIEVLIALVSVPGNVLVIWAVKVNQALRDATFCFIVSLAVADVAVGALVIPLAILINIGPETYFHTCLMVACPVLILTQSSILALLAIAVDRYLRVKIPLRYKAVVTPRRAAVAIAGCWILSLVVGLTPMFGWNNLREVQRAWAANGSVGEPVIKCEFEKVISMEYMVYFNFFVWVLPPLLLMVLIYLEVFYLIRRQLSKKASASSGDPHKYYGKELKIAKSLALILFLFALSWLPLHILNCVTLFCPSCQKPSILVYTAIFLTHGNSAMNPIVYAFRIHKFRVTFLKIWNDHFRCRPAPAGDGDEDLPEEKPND
T3 sequence (P28190 whole entry): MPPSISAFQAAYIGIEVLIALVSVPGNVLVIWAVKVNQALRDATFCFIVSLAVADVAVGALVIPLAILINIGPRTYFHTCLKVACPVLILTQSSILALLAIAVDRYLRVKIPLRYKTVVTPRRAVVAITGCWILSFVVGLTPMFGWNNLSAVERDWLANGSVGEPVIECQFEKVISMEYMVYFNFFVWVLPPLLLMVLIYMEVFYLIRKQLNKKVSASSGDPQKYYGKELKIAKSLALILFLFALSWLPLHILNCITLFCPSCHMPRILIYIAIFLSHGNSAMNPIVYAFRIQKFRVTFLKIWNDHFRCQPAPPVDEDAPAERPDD

Structure (SMILES): CCNC(=O)[C@H]1O[C@@H](n2cnc3c(N)nc(NCCc4ccc(CCC(=O)NCCN)cc4)nc32)[C@H](O)[C@@H]1O [APEC, 2-[(2-aminoethylamino)-carbonylethylphenylethylamino]-5'-N-ethylcarboxamidoadenosine, reference compound]
total distance traveled ([1]; APEC alone 16 μg/kg, n=13): 2277±229 cm/30 min
ED50 for locomotor depression elicited by APEC ([1]; following 1 mg/kg CSC): 0.19 mg/kg
ED50 for locomotor depression (locomotor activity; i.p., previously determined): 0.016 mg/kg

Structure (SMILES): Nc1nc2ccc(Cl)cc2n2c(-c3ccccc3)nnc12 [CP66,713]
effect on A1 depression of locomotor activity (locomotor activity; in vivo, same dose): no effect on A1 depression of locomotor activity
antagonism of A2 depression of locomotor activity (locomotor activity; in vivo): partial antagonism of A2 depression of locomotor activity
selectivity A2a vs. A1 [2]: 12 fold

Structure (SMILES): Cn1c(=O)c2[nH]c(C3CCCC3)nc2n(C)c1=O [CPT, 8-cyclopentyltheophylline, reference compound]
locomotor stimulation, in words [1]: moderate, but transient, locomotor stimulation
Behavioral stimulation ([1]; typical dose 10 (mg/kg, i.p.)): ++
Ki [3, 23]: 0.024 µM
time until stimulatory effect disappears [4]: ≤ 20 min

Structure (SMILES): Cn1c(=O)c2c(nc(/C=C/c3cccc(NC(=O)CCC(=O)O)c3)n2C)n(C)c1=O [Compound 24, 1,3,7-Trimethyl-8-(3-succinylaminostyryl)xanthine]
Ki [3, 24]: 35.1 µM
Ki [5, 25]: 0.134 µM
A1/A2a ratio ([5]; Table I): 250
Ki [5, 26]: 0.143 ± 0.045 µM
solubility (Aqueous solubility; 0.1 m k2hpo4): 19 mM
solubility (Aqueous solubility; 0.1 m potassium phosphate, pH 7.4): 19 mM

Structure (SMILES): Cn1c(=O)c2c(nc(/C=C/c3cccc(Cl)c3)n2C)n(C)c1=O [Compound 28a, 1,3,7-trimethyl-8-(3-chlorostyryl) xanthine]
increase in clockwise and anti-clockwise rotations [1]: 30-60%
effect on locomotor activity of concurrent administration ([1]; APEC 16 μg/kg with CSC 5 mg/kg): no effect on the locomotor activity
reversal of APEC-elicited locomotor depression ([1]; CSC 1 mg/kg i.p., APEC 16 μg/kg): nearly completely reverse the locomotor depression
total distance traveled ([1]; CSC 1.0 mg/kg with CPX […], n=9): 4861±243 cm/30 min
stimulation of locomotor activity over CSC alone ([1]; CSC 1.0 mg/kg with CPX […], p<0.001): 37%
total distance traveled ([1]; CSC 5 mg/kg alone, n=13): 4223±496 cm/30 min
increase in locomotor activity versus APEC alone ([1]; CSC 5 mg/kg with APEC 16 μg/kg): 73%
total distance traveled ([1]; CSC 5 mg/kg with APEC 16 μg/kg, n=14): 3949±284 cm/30 min
total distance traveled ([1]; CSC 5 mg/kg with CHA, n=8): 2029±250 cm/30 min
locomotor stimulation over vehicle control ([1]; CSC 5 mg/kg, 30 min): 22%
effect on locomotor depression elicited by CHA ([1]; CSC 5 mg/kg, CHA 100 μg/kg i.p.): no effect on locomotor depression
increase in locomotor activity versus control ([1]; CSC 5 mg/kg, last 10 minutes of 30 min): 56%
total distance traveled ([1]; CSC alone 1 mg/kg i.p., n=19): 3550±230 cm/30 min
increase in average distance per move ([1]; CSC with CPX): approximately 30%
locomotor stimulation, in words [1]: no significant effect on locomotor activity
Behavioral stimulation ([1]; typical dose 5 (mg/kg, i.p.)): +
solubility (Aqueous solubility; injection vehicle): < 1000 µg/mL

Structure (SMILES): Cn1c(=O)c2c(nc(/C=C/c3cccc(N=C=S)c3)n2C)n(C)c1=O [Compound 28e, 1,3,7-trimethyl-8-(3-isothiocyanatostyryl)xanthine]
IC50 [6]: 63.4 µM
IC50 [7]: 0.413 ± 0.135 µM
Ki [7]: 0.347 ± 0.112 µM
IC50 ([8]; IC50 (A1), rat, vs [3H]PIA (1 nM)): 42.6 µM
IC50 ([8]; IC50 at A1-receptors, rat striatum): 43 µM
Ki ([8]; Ki value (A1), rat striatum, Table V footnote b): 20.3 µM
Ki ([8]; Ki value at A1-receptors, rat striatum): 20 µM
IC50 [9]: 2.7 µM
inhibition at 20 µM ([9]; 1 h, read-out: loss of specific [3H]CGS 21680 binding, preincubation with 20 μM ISC, rat): ~80%
inhibition at 2 µM ([9]; 2 h, read-out: loss of specific [3H]CGS 21680 binding at 2 h, 2 μM ISC, 25° C.): ~55%
Ki [3]: 20.3 µM
IC50 [10]: 75.6 µM
IC50 [11]: 0.146 µM
Ki [11]: 0.111 µM
EC50 (rabbit A2a receptors): 10 µM
IC50 [12]: 51.4 µM
IC50 [13]: 0.516 ± 0.064 µM
Ki ([5]; Ki (A2a)): 0.111 ± 0.001 µM
time for inhibition of 50% of final value at 2 h ([14]; 2 μM ISC, 25° C.): Approximately 3 min
regeneration of A2a-receptor binding ([14]; IBMX 100 μM overnight on ISC-treated membranes): did not regenerate any A2a -receptor binding
loss of [3H]PIA binding [15]: 12±2.9%
Hill coefficients for displacement of [3H]CGS 21680 [16]: ~1
EC50 (bovine A2a receptors): 8 µM

Ki [3, 24]: 2.28 µM
Structure (SMILES): COc1cc(/C=C/c2nc3c([nH]2)c(=O)n(C)c(=O)n3C)cc(OC)c1OC [Compound 44a]
Ki [17]: > 100 µM
Ki [18]: 0.071 µM

Ki [3, 24]: 9.2 µM
Structure (SMILES): COc1cc(/C=C/c2nc3c(c(=O)n(C)c(=O)n3C)n2C)cc(OC)c1OC [Compound 44b, 1,3,7-trimethyl-8-(3,4,5-trimethoxy)-styryl-xanthine]
Ki [17]: > 100 µM
Ki [18]: 0.018 µM

Ki [3, 24]: 1.93 µM
Structure (SMILES): C=CCn1c(=O)c2c(nc(/C=C/c3cc(OC)c(OC)c(OC)c3)n2C)n(CC=C)c1=O [Compound 46]
Ki [17]: > 100 µM
Ki [18]: 0.015 µM

Ki [3, 24]: 0.071 ± 0.011 µM
Structure (SMILES): CCCn1c(=O)c2[nH]c(/C=C/c3ccc(OC)c(OC)c3)nc2n(CCC)c1=O [Compound 52a]
Ki [17]: 1.7 µM
Ki [18]: 6.7 µM

Structure (SMILES): CCCn1c(=O)c2c(nc(/C=C/c3cc(OC)cc(OC)c3)n2C)n(CCC)c1=O [Compound 53b, 1,3-Dipropyl-7-methyl-8-(3,5-dimethoxystyryl)xanthine]
apparent A1 affinity versus DMSO concentration ([3]; 0.5 and 1% DMSO): somewhat dependent on DMSO concentration
Ki [3, 24]: 2.63 µM
selectivity relative to 52b [5]: 5 fold
apparent affinity at A2 receptors versus DMSO concentration ([5]; 0.5% to 6% DMSO): constant within the range of 0.5% to 6% DMSO
Ki [5, 25]: 0.024 µM and ≤ 0.05 µM
A1/A2a ratio ([5]; Table I): 110
Ki [5, 26]: 0.024 ± 0.006 µM
A2-selectivity ([5]; rat brain binding, this study): 110 fold
solubility kinetic (Aqueous solubility; concentration above which compound did not remain dissolved): 0.01 mM (≈ 4.12 µg/mL)
solubility kinetic (Aqueous solubility; theoretical concentration beyond which UV absorption decreases (supersaturation)): 0.02 mM (≈ 8.25 µg/mL)

Structure (SMILES): C#CCn1c(=O)c2c(ncn2C)n(C)c1=O [DMPX, 3,7-dimethyl-1-propargylxanthine]
Behavioral stimulation ([1]; typical dose 10 (mg/kg, i.p.)): +++
Ki [19]: 16 µM
Kb [20]: 94 µM
Ki [3, 23]: 45 µM
Kb [21]: 4 µM
Kb [22]: 9.6 µM
